The values below come from patent US8067615B2, “Sulphonylpyrroles” (4SC AG, priority 2004, dated 2011).

Series [1] relates to histone H3K23 hyperacetylation in HeLa cervical carcinoma cells. Description: Cellular histone H3 hyperacetylation assay. The class given is cell-based. Conditions: Homo sapiens, 24 h with compound, read-out: Induction of histone H3K23 hyperacetylation EC50. The text has this:
To assess the cellular efficacy of an histone deacetylase inhibitor in vitro, an assay was set up in black clear-bottom 96-well plates and optimized for use on the Cellomics “ArrayScan II” platform for a quantitative calculation of […] acetylation. The protocol uses a polyclonal rabbit antibody, specifically binding to acetylated lysine 23 of human histone H3 on fixed cells with an Alexa Fluor 488 labeled goat anti rabbit-IgG used for counterstaining (Braunger et al. AACR annual conference 2003, Abstract 4556). 5×10^3 HeLa cervical carcinoma cells/well (ATCC CCL-2) in 200 μl Dulbecco's modified Eagle's medium (DMEM) containing 10% fetal calf serum were seeded at day 1 in Packard view plates and incubated for 24 h under standard cell culture conditions. On day 2, 2 μl test compound (100× final concentration) was added and incubation continued for further 24 h. On day 3, the culture medium was discarded and attached cells fixed for 15 min at room temperature by addition of 100 μl fixation buffer (3.7% v:v formaldehyde in phosphate buffered saline/PBS). After discarding the fixation buffer and one wash with PBS, cells were permeabilized at room temperature by addition of 100 μl/well permeabilization buffer (30.8 mM NaCl, 0.54 mM Na2HPO4, 0.31 mM KH2PO4, 5% v:v Triton X-100) for 15 min at room temperature. After discarding the permeabilization buffer and addition of 100 μl/well blocking solution (PBS with 0.05% v:v Tween 20 and 5% w:v milk powder) for 30 min at room temperature, the 1st antibody (anti-K23 histone H3 antibody, Cell Signaling No. 9674) in blocking solution (50 μl/well) was added. After incubation for 1 h at 37° C., the wells were washed 5 times for 5 min at room temperature with wash buffer (PBS with 0.05% v:v Tween 20) before addition of the 2nd antibody (goat-anti-rabbit Alexa Fluor 488; MoBiTec No. A-11008) in blocking solution (50 μl/well). After further incubation for 30 min at 37° C., wells were washed 5 times for 5 min at RT with 100 μl wash buffer at room temperature. Finally, 100 μl/well PBS were added and image analysis performed on the Cellomics “ArrayScan II” platform. For calculation of EC50 values, the nuclear fluorescence in cells treated with and without a reference HDAC inhibitor like SAHA or NVP-LBH-589 were taken as a positive and negative control, respectively. For EC50 determination, the percentage of positive cells was determined and EC50 calculation done from concentration-effect curves by means of non-linear regression.

For series [2], the system named is HeLa cervical carcinoma cells. Description: Cellular cytotoxicity assay (Alamar Blue / Resazurin). Conditions: Homo sapiens, 48 hours incubation. The class given is cell-based. The procedure:
The anti-proliferative activity of the histone deacetylase inhibitory compounds as described herein, was evaluated with the HeLa cervical carcinoma cell line (ATCC CCL2) using the Alamar Blue (Resazurin) cell viability assay (O'Brien et al. Eur J Biochem 267, 5421-5426, 2000). Resazurin is reduced to the fluorescent resorufin by cellular dehydrogenase activity, correlating with viable, proliferating cells. Test compounds were dissolved as 10 mM solutions in dimethylsulfoxide (DMSO) and subsequently diluted in semi-logarithmic steps. HeLa cells were seeded into 96 well flat bottom plates at a density of 3000 cells per well in a volume of […] per well. 24 hours after seeding 1 μl each of the compound dilutions were added into each well of the 96 Well plate. Each compound dilution was tested as quadruplicates. Wells containing untreated control cells were filled with 200 μl DMEM medium containing 0.5% v:v DMSO. The cells were then incubated with the substances for 48 hours at 37° C. in a humidified atmosphere containing 5% carbon dioxide. To determine the viability of the cells, 20 μl of an Resazurin solution (Sigma; 90 mg/l) were added. After 4 hours incubation at 37° C. the fluorescence was measured at an […] of 544 nm and an emission of 590 nm. For the calculation of the cell viability the emission value from untreated cells was set as 100% viability and the emission rates of treated cells were set in relation to the values of untreated cells. Viabilities were expressed as % values. The corresponding IC50 values of the compounds for cytotoxic activity are determined from the concentration-effect curves by means of non-linear regression.

Each structure is given as a SMILES string.

In turn, `O=C(/C=C/c1ccn(S(=O)(=O)c2ccc(CN3CCOCC3)cc2)c1)NO` [Compound 27, (E)-N-Hydroxy-3-[1-(4-morpholin-4-ylmethyl-benzenesulfonyl)-1H-pyrrol-3-yl]acrylamide] yielded a melting point of 168 to 170 °C. In addition, the EC50 in series [1] lay within 2.15 to 51.3 µM. In series [2], this compound returned a concentration for half-maximal inhibition (IC50) of 0.07 to 5 µM.
For `O=C(/C=C/c1ccn(S(=O)(=O)Cc2ccccc2)c1)NO` [Compound 2, N-Hydroxy-3-(1-phenylmethanesulfonyl-1H-1-pyrrol-3-yl)-acrylamide], the EC50 in series [1] lay in the range of 2.15 to 51.3 µM. Moreover, the IC50 in series [2] was 0.8 to 21.6 µM.
